Assay results from patent publication US10889553B2, “Asymmetric triazole benzamide derivatives and the compositions and methods of treatment regarding the same” (NysnoBio Ireland DAC, priority 2017, dated 2021).
“And” between values parts separate entries of the source, which are not always exact repeats. Identical values can stand only once.

Biological target: T1, Parkin ligase (Homo sapiens, UniProt O60260)
T1 sequence (O60260 1-465): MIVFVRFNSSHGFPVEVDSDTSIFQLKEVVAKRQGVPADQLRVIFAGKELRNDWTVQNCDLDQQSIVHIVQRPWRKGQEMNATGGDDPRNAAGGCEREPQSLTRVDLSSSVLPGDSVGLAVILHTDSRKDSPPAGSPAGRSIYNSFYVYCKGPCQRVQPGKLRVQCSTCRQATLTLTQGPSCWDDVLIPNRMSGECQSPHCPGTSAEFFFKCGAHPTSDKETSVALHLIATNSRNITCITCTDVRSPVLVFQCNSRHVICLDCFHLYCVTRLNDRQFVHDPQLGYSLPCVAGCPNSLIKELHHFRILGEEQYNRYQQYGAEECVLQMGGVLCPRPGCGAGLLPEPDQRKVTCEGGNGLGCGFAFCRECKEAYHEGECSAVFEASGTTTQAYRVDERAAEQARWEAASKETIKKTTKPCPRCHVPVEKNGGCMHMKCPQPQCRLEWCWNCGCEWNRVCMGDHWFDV
Experiment: Activity-Based Probe Assay using Ubiquitin vinyl sulfone probe (TR-FRET)
Assay type: biochemical
Settings: heat activated Parkin, HA-Ub-VS probe, activation EC50; read-out: Probe Assay EC50 (μM) [Example 2]
Method in brief: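 Heat-activated His-Parkin (5 min, 58 °C; 40 nM) was preincubated 15 min with compound, then reacted 60 min at 22 °C with 70 nM HA-Ub-VS in 50 mM HEPES pH 8.5, 150 mM NaCl, 0.01% Tween 20, 0.1% BSA. Probe labelling was read by anti-His-Eu/anti-HA-XL665 TR-FRET (665/615 ratio). % activation was normalized to DMSO and 100 nM control activator, then fitted with a four-parameter curve (Bottom=0, Top=100).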

Structure (SMILES)	EC50
C#Cc1ccc(C(=O)Nc2nc(NC(=O)c3cccc(N=[N+]=[N-])c3)n(-c3ccccc3)n2)cc1 [Compound 2]	4 µM
Cc1ccccc1C(=O)Nc1nc(NC(=O)c2cccnc2)nn1-c1ccccc1 [Compound 6]	2 µM
Cc1ccccc1C(=O)Nc1nc(NC(=O)c2ccno2)n(-c2ccccc2)n1 [Compound 7]	12 µM
Cc1ccccc1C(=O)Nc1nc(NC(=O)c2ccccn2)nn1-c1ccccc1 [Compound 16]	3 µM
Cc1ccccc1C(=O)Nc1nc(NC(=O)c2cnccn2)n(-c2ccccc2)n1 [Compound 17]	10 µM
Cc1ccccc1C(=O)Nc1nc(NC(=O)C2CCCN2)nn1-c1ccccc1 (stereo not drawn) [Compound 20]	2 µM
Cc1ccc(C(=O)Nc2nc(NC(=O)c3ccc(C)cc3)n(-c3ccccc3)n2)cc1 [Compound 21]	5 µM
COc1ccccc1C(=O)Nc1nc(NC(=O)c2ccccc2OC)n(-c2ccccc2)n1 [Compound 23]	10 µM
Cc1ccccc1C(=O)Nc1nc(NC(=O)c2ccccc2C)n(-c2ccc(F)c(F)c2)n1 [Compound 24]	3 µM
Cc1ccccc1C(=O)Nc1nc(NC(=O)c2ccccc2C)n(-c2ccc(C(F)(F)F)cc2)n1 [Compound 25]	0.9 µM and 2 µM
Cc1ccccc1C(=O)Nc1nc(NC(=O)c2ccccc2C)n(-c2ccccc2Cl)n1 [Compound 26]	6 µM
Cc1ccc(-n2nc(NC(=O)c3ccccc3C)nc2NC(=O)c2ccccc2C)cc1 [Compound 31]	4 µM
Cc1ccccc1C(=O)Nc1nc(NC(=O)c2ccccc2C)n(-c2ccccc2F)n1 [Compound 32]	9 µM
O=C(Nc1nc(NC(=O)c2ccncc2)n(-c2ccccc2)n1)c1ccncc1 [Compound 33]	3 µM
Cc1ccccc1C(=O)Nc1nc(NC(=O)c2ccccc2C)n(-c2ccc(OC(F)(F)F)cc2)n1 [Compound 42, N,N′-(1-(4-(trifluoromethoxy)phenyl)-1H-1,2,4-triazole-3,5-diyl)bis(2-methylbenzamide)]	1 µM and 3 µM

Continued, values first:

EC50	Structure (SMILES)
2 µM	Cc1ccccc1C(=O)Nc1nc(NC(=O)c2ccncc2)nn1-c1ccccc1 [Compound 34]
3 µM	Cc1ccccc1C(=O)Nc1nc(NC(=O)c2ccccc2C)n(-c2ccc(C#N)cc2)n1 [Compound 35]
3 µM and 4 µM	Cc1ccccc1C(=O)Nc1nc(NC(=O)c2ccccc2C)n(-c2cccc(Cl)c2)n1 [Compound 36]
4 µM	COc1ccc(C(=O)Nc2nc(NC(=O)c3ccc(OC)cc3)n(-c3ccccc3)n2)cc1 [Compound 37]
5 µM	Cc1cccc(-n2nc(NC(=O)c3ccccc3C)nc2NC(=O)c2ccccc2C)c1 [Compound 38]
4 µM	Cc1ccccc1C(=O)Nc1nc(NC(=O)c2ccccc2C)n(-c2cccc(F)c2)n1 [Compound 39]
1 µM	O=C(Nc1nc(NC(=O)c2cccnc2)n(-c2ccccc2)n1)c1cccnc1 [Compound 40]
2 µM	O=C(Nc1nc(NC(=O)c2ccccn2)n(-c2ccccc2)n1)c1ccccn1 [Compound 41]
3 µM	Cc1ccccc1C(=O)Nc1nc(NC(=O)c2ccccc2C)n(-c2ccc(N3CCCCC3)cc2)n1 [Compound 44]
6 µM	Cc1ccccc1C(=O)Nc1nc(NC(=O)c2ccccc2C)n(-c2ccc(F)cc2F)n1 [Compound 46]
2 µM	Cc1ccccc1C(=O)Nc1nc(NCc2ccccc2)nn1-c1ccc(C(F)(F)F)cc1 [Compound 102]
3 µM	Cc1ccnc(-c2nc(NC(=O)c3ccccc3C)n(-c3ccccc3)n2)c1 [Compound 124]
